Results published in patent US6977261B2, “Azaisoquinoline derivatives as matrix metalloproteinase inhibitors” (Warner-Lambert Company LLC, priority 2002, dated 2005).

Molecular target: human MMP-13 catalytic domain (hMMP-13CD) (Homo sapiens, UniProt P45452)
Experiment: Inhibition of MMP-13 catalytic domain (thiopeptolide substrate assay)
Assay type: biochemical
Source text: The assays measure the amount by which a test compound reduces the hydrolysis of a thiopeptolide substrate catalyzed by a matrix metalloproteinase enzyme. Such assays are described in detail by Ye et al., in Biochemistry, 1992;31(45):11231-11235, which is incorporated herein by reference. One such assay is described below in Biological Method 1.
Some of the particular methods described below use the catalytic domain of the MMP-13 enzyme, namely matrix metalloproteinase-13 catalytic domain (“MMP-13CD”), rather than the corresponding full-length enzyme, MMP-13. It has been shown previously by Ye Qi-Zhuang, Hupe D., and Johnson L. (Current Medicinal Chemistry, 1996;3:407-418) that inhibitor activity against a catalytic domain of an MMP is predictive of the inhibitor activity against the respective full-length MMP enzyme.
Thiopeptolide substrates show virtually no decomposition or hydrolysis at or below neutral pH in the absence of a matrix metalloproteinase enzyme. A typical thiopeptolide substrate commonly utilized for assays is Ac-Pro-Leu-Gly-thioester-Leu-Leu-Gly-OEt. […] The change in absorbance at 405 nm is monitored on a Thermo Max microplate reader (molecular Devices, Menlo Park, Calif.) at room temperature (22° C.). […]
Some representative compounds of Formula I have been evaluated for their ability to inhibit MMP-13. […]

## O=C(O)c1ccc(Cn2ccc3ccc(C#CCn4ccnn4)cc3c2=O)cc1 [4-[1-oxo-7-(3-[1,2,3]triazol-1-ylprop-1-ynyl)-1H-isoquinolin-2-ylmethyl]benzoic acid]
  IC50: > 50 µM
